In patent US10314816B2, “Antimicrobial compounds, compositions and methods of use thereof” (Wisconsin Alumni Research Foundation, priority 2012, dated 2019):
Read-outs that look alike come from different tables or passages of the source.

Assays:
E. coli BW25113 ΔtolC = experiment: MIC of DCAP analogs, LB media, macrodilution (CLSI); assay type: cell-based; details: Escherichia coli
Description: Luria-Bertani (LB) media (10 g/L tryptone, 10 g/L NaCl, 5 g/L yeast extract, pH 7.0) was used to grow all the strains represented in Tables 5 and 6. All the cultures were grown at 37° C. All the E. coli strains were grown while shaking at 200 rpm and the clinical pathogens were statically incubated. […]

Morganella morganii = experiment: MIC of DCAP analogs, LB media, microdilution (CLSI); assay type: cell-based; details: microdilution (Table 6)
Description: (§1) Luria-Bertani (LB) media (10 g/L tryptone, 10 g/L NaCl, 5 g/L yeast extract, pH 7.0) was used to grow all the strains represented in Tables 5 and 6. All the cultures were grown at 37° C. All the E. coli strains were grown while shaking at 200 rpm and the clinical pathogens were statically incubated.
(§2) For clinical pathogenic organisms including S. typhimurium, V. cholera, S. boydii, K pneumonia, E. aerogenes, A. baumannii, E. tarda, and M. morganii strains, liquid LB media in 96-well microplates (100 μL/well) and the microdilution method from the CLSI guidelines were used.

Acinetobacter baumannii = experiment: as above; assay type: cell-based; details: microdilution (Table 6)
Description: as §1, §2

Salmonella typhimurium = experiment: as above; assay type: cell-based; details: Salmonella enterica, microdilution (Table 6)
Description: as §1, §2

Edwardsiella tarda = experiment: as above; assay type: cell-based; details: microdilution (Table 6)
Description: as §1, §2

Klebsiella pneumonia = experiment: as above; assay type: cell-based; details: Klebsiella pneumoniae, microdilution (Table 6)
Description: as §1, §2

Enterobacter aerogenes = experiment: as above; assay type: cell-based; details: Klebsiella aerogenes, microdilution (Table 6)
Description: as §1, §2

Vibrio cholera = experiment: as above; assay type: cell-based; details: Vibrio cholerae
Description: as §1, §2

Shigella boydii = experiment: as above; assay type: cell-based; details: microdilution (Table 6)
Description: as §1, §2

S. aureus FRI 100 [1] = experiment: Minimum biofilm eradication concentration (MBEC); assay type: cell-based, Staphylococcus aureus; details: S. aureus FRI 100 biofilm
Description: (§3) Determination of the minimum biofilm inhibitory concentration of growth (bMIC) and biofilm eradication concentration (MBEC). Overnight cultures of C. crescentus and S. aureus were grown and diluted 100-fold into appropriate nutrient media. Aliquots of the diluted suspension were transferred into wells of 96-well plates (150 μL/well). 2-fold serial dilutions were performed for compound-containing wells. For every experiment, three replicates for each compound concentration tested were included. After transferring aliquots of the suspension, the plates were closed with specialized lids that have protruding pins (Nunc STP System), and the plates were sealed using Parafilm®. The plates were incubated in a static incubator at 30° C. (C. crescentus) or 37° C. (S. aureus) for 24 hours. After the cells had formed biofilms on the surface of the pins, the pins were rinsed by dipping them in M2 (C. crescentus) or PBS (S. aureus) solutions. To rinse the pins, clean, sterile 96-well plates were used (aliquots of 200 μL/well); each rinse lasted 10 sec. After washing away planktonic cells loosely bound to biofilms, the pins were inserted into a 96-well plate that was pre-aliquoted with nutrient media containing antibiotics (2-fold dilutions, a final volume of 150 μL/well). The plates were sealed with Parafilm®, and incubated for 17 hours, and the bMIC was measured at the end of the incubation by visual inspection. After the bMIC run, the rinse steps were repeated to remove planktonic cells, and the pins were inserted into a 96-well plate that was pre-aliquoted with drug-free nutrient media (aliquots of 150 μL/well). The plates were sealed with Parafilm®, incubated for 24 hours, and the MBEC was measured at the end of the incubation by visual inspection.
After performing bMIC experiments, biofilms growing on the pins of the lid were transferred to nutrient media devoid of antibiotics to measure the minimum concentration of antibiotic that prevented planktonic growth from biofilms in antibiotic-free nutrient media (MBEC). […]

C. crescentus CB15N [2] = experiment: Minimum biofilm inhibitory concentration (bMIC); assay type: cell-based, Caulobacter crescentus
Description: as §3, with “After the bMIC run, the rinse steps were repeated to remove planktonic cells, and the pins were inserted into a 96-well plate that was pre-aliquoted with drug-free nutrient media (aliquots of 150 μL/well).” left out
(§4) Membrane-active compounds are also efficient at eradicating biofilm-associated cells (Table 2). […] To determine the efficacy of antibiotics against biofilms, the minimum biofilm inhibitory concentration (bMIC) and the minimum biofilm eradication concentration (MBEC) were measured. […] After 24 hours of exposure to compounds, the lowest concentration of antibiotic that inhibited planktonic cell growth in the wells (bMIC) was determined.

C. crescentus CB15N [3] = experiment: Minimum stationary-bactericidal concentration (MSC); assay type: cell-based, Caulobacter crescentus; details: C. crescentus CB15N, stationary cells, 24 hours
Description: (§5) Determination of the Minimum Stationary-Bactericidal Concentration.
(§6) Cultures of C. crescentus (24 hour incubation) and S. aureus cells (5 day incubation) were grown from single colonies. Cells were collected by centrifugation (8500 rpm for 2.5 minutes) and re-suspended in M2 salt solution (for C. crescentus; 1.74 g/L Na2HPO4, 1.06 g/L KH2PO4, and 0.5 g/L NH4Cl) or phosphate-buffered saline (for S. aureus; PBS, Fisher Scientific). The centrifugation and re-suspension was repeated two more times. After the repeated washing steps, the cell suspension was diluted 10-fold to achieve approximately 10^8 cells/mL. Aliquots of the diluted cell suspension were transferred into wells of a 96-well plate (100 μL/well), and 2-fold serial dilutions were performed to test a range of antibiotic concentrations. The plate was sealed with Parafilm® and incubated for 24 hours at room temperature in the dark. After incubation, 50 μl was removed from each well to spread on nutrient agar plates (1.5% agar in PYE for C. crescentus, and LB for S. aureus). The colonies on each plate were counted after growing the cells for 1-2 days. For determining the kinetics of bactericidal activity of DCAP on stationary cultures, the washed cells were diluted by 100-fold in appropriate solutions and tested using a single concentration of the compound while including a DMSO control sample. Cell suspensions were kept in closed microcentrifuge tubes instead of the wells of 96-well plates. 100 μL of the suspensions was removed for plating at each time point. All MSC experiments were performed in static conditions.
(§7) In addition to its activity against actively growing bacteria, DCAP kills cells in stationary phase (Table 3). This property was tested against C. crescentus and S. aureus. […] To ensure that bacteria were deprived of nutrients, the cells were grown into late stationary phase (i.e., 24 hours for C. crescentus and 5 days for S. aureus). These cells were collected, suspended in isotonic solutions devoid of amino acids or sugars, and treated with a small molecule (DMSO, DCAP, CCCP or ampicillin). Cell viability was measured over time by plating culture aliquots on non-selective, solid growth media. The minimum concentration of antibiotic required to completely eliminate colony formation was designated as the minimum stationary-bactericidal concentration (MSC). […] CCCP inhibited the proliferation of C. crescentus cells regardless of their physiological status. However, the MSC of CCCP for S. aureus was >300-fold higher than the MIC. This dramatic decrease in the effectiveness of CCCP in S. aureus may be due to changes in membrane composition as cells adjust their metabolism in nutrient-deprived conditions.

C. crescentus CB15N [4] = experiment: Minimum biofilm eradication concentration (MBEC); assay type: cell-based, Caulobacter crescentus
Description: as §3
After performing bMIC experiments, biofilms growing on the pins of the lid were transferred to nutrient media devoid of antibiotics to measure the minimum concentration of antibiotic that prevented planktonic growth from biofilms in antibiotic-free nutrient media (MBEC). MBEC indicates whether the exposure to antimicrobial agent used during the bMIC experiment sterilized biofilm-associated cells. […] CCCP was the only effective antibiotic against S. aureus biofilms. Since CCCP was not as effective as DCAP at killing stationary cells, it was hypothesized that this variability in efficacy of membrane-active drugs is in part caused by changes in membrane composition (i.e., membrane proteins and lipid content) at different developmental stages of bacterial cells. […]

C. crescentus CB15N [5] = experiment: MIC of bacterial growth, macrodilution (Table 2); assay type: cell-based, Caulobacter crescentus; details: actively growing cells
Description: Bacterial strains and growth conditions. Luria-Bertani (LB) media (10 g/L tryptone, 10 g/L NaCl, 5 g/L yeast extract, pH 7.2) was used to grow B. subtilis 168, S. aureus FRI100, and P. aeruginosa K1115 strains. For P. aeruginosa PAO1 and K1119 strains and two E. coli BW25113 strains, M8 minimal media (241 mg/L MgSO4, 4 mg/L glucose, 5 mg/L casamino acids, 12.8 g/L Na2HPO4.7H2O, 3 g/L KH2PO4, and 0.5 g/L NaCl) was used. PYE media (2 g/L peptone, 1 g/L yeast extract, 0.8 mM MgSO4, and 0.5 mM CaCl2) was used for culturing C. crescentus cells at 30° C. All cultures were grown at 37° C., except for C. crescentus (30° C.). All cultures were grown while shaking at 200 rpm.
Determination of the minimum inhibitory concentration (MIC) of bacterial growth. The MIC of various organisms in liquid media was determined using the macrodilution method according to the NCCLS guidelines. For the starting inoculum, cultures were diluted to contain approximately 5×10^5 cells/mL in growth media. To create a two-fold dilution series for the macrodilution technique, each compound was added to the first culture tube (4 mL total volume) at the highest concentration. 2 mL of this culture was diluted into an equal volume of inoculated media (a two-fold dilution). The final volume for each culture was 2 mL.

S. aureus FRI 100 [6] = experiment: Minimum biofilm inhibitory concentration (bMIC); assay type: cell-based, Staphylococcus aureus; details: S. aureus FRI 100 biofilm
Description: as §3, with “After the bMIC run, the rinse steps were repeated to remove planktonic cells, and the pins were inserted into a 96-well plate that was pre-aliquoted with drug-free nutrient media (aliquots of 150 μL/well).” left out
as §4

S. aureus FRI 100 [7] = experiment: Minimum stationary-bactericidal concentration (MSC); assay type: cell-based, Staphylococcus aureus; details: S. aureus FRI 100, stationary cells, 24 hours
Description: as §5, §6, §7

[8] = BW25113, read-out: MIC (ΔtolC E. coli)

Compound `OCC(CO)NCC(O)Cn1c2ccc(Cl)cc2c2cc(Cl)ccc21` (stereo not drawn) [Compound 5] has an MIC (E. coli BW25113 ΔtolC; [8]) of 20 µM.
In the case of `CC(C)CCNCC(O)Cn1c2ccc(Cl)cc2c2cc(Cl)ccc21` (stereo not drawn) [Compound 8], the MIC (E. coli BW25113 ΔtolC; BW25113) is reported as 2.5 µM, the MIC (E. coli BW25113 ΔtolC; [8]) is reported as 2.5 µM and the MIC (Morganella morganii) is reported as 50 µM. The MIC (Acinetobacter baumannii) was 12.5 µM, the MIC (Salmonella typhimurium) was 50 µM and the MIC (Edwardsiella tarda) was 25 µM. It also gave an MIC (Klebsiella pneumonia) of 50 µM, an MIC (Enterobacter aerogenes) of 50 µM and an MIC (Vibrio cholera) of 6.25 µM. The MIC (Shigella boydii) was 25 µM.
In the case of `OCC(CO)(CO)NC[C@@H](O)Cn1c2ccc(Cl)cc2c2cc(Cl)ccc21` [Compound 2], the MIC (E. coli BW25113 ΔtolC; [8]) is reported as 20 µM.
With `CC(CO)(CO)NCC(O)Cn1c2ccc(Cl)cc2c2cc(Cl)ccc21` (stereo not drawn) [Compound 13] the MIC (E. coli BW25113 ΔtolC; [8]) was 40 µM.
`CCC(CC)CNCC(O)Cn1c2ccc(Cl)cc2c2cc(Cl)ccc21` (stereo not drawn) [Compound 10] showed an MIC (E. coli BW25113 ΔtolC; BW25113) of 2.5 µM, an MIC (E. coli BW25113 ΔtolC; [8]) of 2.5 µM and an MIC (Morganella morganii) of over 200 µM. The MIC (Acinetobacter baumannii) was 25 µM, the MIC (Salmonella typhimurium) was 200 µM and the MIC (Edwardsiella tarda) was 12.5 µM. The MIC (Klebsiella pneumonia) was over 200 µM, the MIC (Enterobacter aerogenes) was over 200 µM and the MIC (Vibrio cholera) was 6.25 µM. It also gave an MIC (Shigella boydii) of 25 µM.
With `CCC(CC)NCC(O)Cn1c2ccc(Cl)cc2c2cc(Cl)ccc21` (stereo not drawn) [Compound 6] the MIC (E. coli BW25113 ΔtolC; [8]) was 5 µM.
In the case of `CCCCCNCC(O)Cn1c2ccc(Cl)cc2c2cc(Cl)ccc21` (stereo not drawn) [Compound 7], the MIC (E. coli BW25113 ΔtolC; [8]) is reported as 5 µM.
With `OCC(CO)(CO)NC[C@@H](O)Cn1c2ccccc2c2ccccc21` [Compound 4] the MIC (E. coli BW25113 ΔtolC; [8]) was over 80 µM.
Compound `CC(C)(C)NCC(O)Cn1c2ccc(Cl)cc2c2cc(Cl)ccc21` (stereo not drawn) [Compound 11] has an MIC (E. coli BW25113 ΔtolC; [8]) of 40 µM.
`OCC(CO)(CO)NC[C@H](O)Cn1c2ccc(Cl)cc2c2cc(Cl)ccc21` [Compound 3] was tested, and the MIC (E. coli BW25113 ΔtolC; [8]) was 20 µM.
With `OC(CNC1CCCCC1)Cn1c2ccc(Cl)cc2c2cc(Cl)ccc21` (stereo not drawn) [Compound 9] the MIC (E. coli BW25113 ΔtolC; BW25113) was 2.5 µM, the MIC (E. coli BW25113 ΔtolC; [8]) was 2.5 µM and the MIC (Morganella morganii) was over 200 µM. For the same compound, the MIC (Acinetobacter baumannii) was 100 µM, the MIC (Salmonella typhimurium) was over 200 µM and the MIC (Edwardsiella tarda) was 200 µM. For the same compound, the MIC (Klebsiella pneumonia) was over 200 µM, the MIC (Enterobacter aerogenes) was over 200 µM and the MIC (Vibrio cholera) was 25 µM. The MIC (Shigella boydii) was 200 µM.
Compound `OCC(CO)(CO)NCC(O)CN1CCc2cc(Cl)ccc21` (stereo not drawn) [Compound 12] has an MIC (E. coli BW25113 ΔtolC; [8]) of over 40 µM.
With `CCC(CO)(CO)NCC(O)Cn1c2ccc(Cl)cc2c2cc(Cl)ccc21` (stereo not drawn) [Compound 14] the MIC (E. coli BW25113 ΔtolC; [8]) was 20 µM.
`CC1(C)S[C@@H]2[C@H](NC(=O)[C@H](N)c3ccccc3)C(=O)N2[C@H]1C(=O)O` [Amp, ampicillin] was tested, and the MBEC (S. aureus FRI 100 [1]) was over 200 µg/mL, the bMIC (C. crescentus CB15N [2]) was 100 µg/mL and the MSC (C. crescentus CB15N [3]) was over 400 µg/mL. For the same compound, the MBEC (C. crescentus CB15N [4]) was over 400 µg/mL, the MBEC (C. crescentus CB15N [4]; listed as ampicillin) was over 400 µM and the MIC (C. crescentus CB15N [5]) was 50 µg/mL. It also gave a bMIC (S. aureus FRI 100 [6]) of 0.8 µg/mL and an MSC (S. aureus FRI 100 [7]) of 100 µg/mL.
